Like-named read-outs stand apart in the source and are kept apart here. Positions of bridges follow the written chain, without caps; N, C: chain ends. Non-standard residues stand in square brackets, D forms with d. Residues, ends and D or L forms follow the SMILES beside them. Groups on a side chain read outwards from the residue. *: point of attachment. DOTA = O=C(O)CN1CCN(CC(=O)O)CCN(CC(=O)*)CCN(CC(=O)O)CC1; 2Nal = N[C@@H](Cc1ccc2ccccc2c1)C(=O)O; Lys(iPr) = CC(C)NCCCC[C@H](N)C(=O)O
Legend:
[1] = Biodistribution in Jeko1 tumor-bearing mice; assay type: in vivo; settings: male, NOD.Cg-Rag1^tm1MomII2rg^tm1Wjl/SzJ (NRG), mouse, iv, total radioactivity
Procedure: (§1) For Daudi, Z138, GRANTA519 and Jeko1 xenografts, male NOD.Cg-Rag1^tm1MomII2rg^tm1Wjl/SzJ (NRG) mice were subcutaneously inoculated on the left flank with 5×10^6 cells (100 μL; 1:1 ratio of PBS/Matrigel) and tumors were grown to a size of 200-500 mm^3. For PC-3 xenografts, male NOD.Cg-Rag1^tm1MomII2rg^tm1Wjl/SzJ (NRG) mice were subcutaneously inoculated on the left flank with 5×10^6 PC-3 cells (100 μL; 1:1 ratio of PBS/Matrigel) and tumors were grown to a size of 200-400 mm^3.
(§2) The mice were euthanized via CO2 inhalation while anesthetized with isoflurane. Tissues were harvested, washed in PBS, blotted dry, weighed, and measured on a Hidex AMG Automatic Gamma Counter.

[2] = system: Jeko1 mantle cell lymphoma xenografts; test: Biodistribution in Jeko1 tumor-bearing mice; assay type: in vivo
Procedure: as §1, §2

[3] = In vivo stability (plasma radio-HPLC) in male NRG mice; settings: 5 mins
Text: Radiolabeled peptides (10-30 MBq) was intravenously injected into male NRG mice. After a 5-min, 24-hour or 120-hour uptake period, mice were sedated/euthanized, and blood was collected. The plasma was isolated and analyzed with analytical radio-HPLC following published procedures (Lin et al., Cancer Res. 2015, 75:387-393).

[4] = 1 h blocked (7.5 μg LY2510924 i.p.)

CC(C)NCCCC[C@@H]1NC(=O)[C@H](Cc2ccc(O)cc2)NC(=O)[C@H](Cc2ccccc2)NC(=O)CC[C@H](C(=O)N[C@@H](CCCCNC(C)C)C(=O)N[C@@H](CCCCNC(=O)[C@H](CCC(=O)O)NC(=O)[C@H](CCC(=O)O)NC(=O)[C@H](CCC(=O)O)NC(=O)CN2CCN(CC(=O)O)CCN(CC(=O)O)CCN(CC(=O)O)CC2)C(N)=O)NC(=O)CNC(=O)[C@H](Cc2ccc3ccccc3c2)NC(=O)[C@@H](CCCNC(=N)N)NC1=O [[^68Ga]Ga-BL02, metal not drawn] (FY[Lys(iPr)][dR][2Nal]G[dE][Lys(iPr)]K([Glu-Glu-Glu-DOTA])-NH2; lactam N-7) gave a tissue uptake at 1 h ([1]; Jeko1 tumor, 1 h, read-out: Biodistribution Jeko1 (tumor)) of 11.4 %ID/g, a tissue uptake at 1 h ([1]; Jeko1 tumor, 1 h blocked (7.5 μg LY2510924 i.p.), read-out: Biodistribution Jeko1 (tumor)) of 1.32 %ID/g and a tissue uptake at 1 h ([1]; adrenals, 1 h, read-out: Biodistribution Adrenals) of 0.23 %ID/g. It also gave a tissue uptake at 1 h ([1]; adrenals, 1 h blocked (7.5 μg LY2510924 i.p.), read-out: Biodistribution Adrenals) of 0.47 %ID/g, a tissue uptake at 1 h ([1]; bone, 1 h, read-out: Biodistribution Bone) of 0.47 %ID/g and a tissue uptake at 1 h ([1]; bone, 1 h blocked (7.5 μg LY2510924 i.p.), read-out: Biodistribution Bone) of 0.18 %ID/g. For the same compound, the tissue uptake at 1 h ([1]; brain, 1 h, read-out: Biodistribution Brain) was 0.02 %ID/g, the tissue uptake at 1 h ([1]; brain, 1 h blocked (7.5 μg LY2510924 i.p.), read-out: Biodistribution Brain) was 0.03 %ID/g and the tissue uptake at 1 h ([1]; fat, 1 h, read-out: Biodistribution Fat) was 0.05 %ID/g. It also gave a tissue uptake at 1 h ([1]; fat, 1 h blocked (7.5 μg LY2510924 i.p.), read-out: Biodistribution Fat) of 0.14 %ID/g, a tissue uptake at 1 h ([1]; heart, 1 h, read-out: Biodistribution Heart) of 0.13 %ID/g and a tissue uptake at 1 h ([1]; heart, 1 h blocked (7.5 μg LY2510924 i.p.), read-out: Biodistribution Heart) of 0.35 %ID/g. For the same compound, the tissue uptake at 1 h ([1]; intestine, 1 h, read-out: Biodistribution Intestine) was 0.19 %ID/g, the tissue uptake at 1 h ([1]; intestine, 1 h blocked (7.5 μg LY2510924 i.p.), read-out: Biodistribution Intestine) was 0.44 %ID/g and the tissue uptake at 1 h ([1]; kidney, 1 h, read-out: Biodistribution Kidney) was 3.32 %ID/g. The tissue uptake at 1 h ([1]; kidney, 1 h blocked (7.5 μg LY2510924 i.p.), read-out: Biodistribution Kidney) was 8.91 %ID/g, the tissue uptake at 1 h ([1]; liver, 1 h, read-out: Biodistribution Liver) was 0.77 %ID/g and the tissue uptake at 1 h ([1]; liver, 1 h blocked (7.5 μg LY2510924 i.p.), read-out: Biodistribution Liver) was 0.55 %ID/g. It also gave a tissue uptake at 1 h ([1]; lung, 1 h, read-out: Biodistribution Lung) of 0.74 %ID/g, a tissue uptake at 1 h ([1]; lung, 1 h blocked (7.5 μg LY2510924 i.p.), read-out: Biodistribution Lung) of 1.05 %ID/g and a tissue uptake at 1 h ([1]; muscle, 1 h, read-out: Biodistribution Muscle) of 0.06 %ID/g. For the same compound, the tissue uptake at 1 h ([1]; muscle, 1 h blocked (7.5 μg LY2510924 i.p.), read-out: Biodistribution Muscle) was 0.2 %ID/g, the tissue uptake at 1 h ([1]; pancreas, 1 h, read-out: Biodistribution Pancreas) was 0.09 %ID/g and the tissue uptake at 1 h ([1]; pancreas, 1 h blocked (7.5 μg LY2510924 i.p.), read-out: Biodistribution Pancreas) was 0.26 %ID/g. It also gave a tissue uptake at 1 h ([1]; spleen, 1 h, read-out: Biodistribution Spleen) of 0.7 %ID/g, a tissue uptake at 1 h ([1]; spleen, 1 h blocked (7.5 μg LY2510924 i.p.), read-out: Biodistribution Spleen) of 0.57 %ID/g and a tissue uptake at 1 h ([1]; stomach, 1 h, read-out: Biodistribution Stomach) of 0.06 %ID/g. It also gave a tissue uptake at 1 h ([1]; stomach, 1 h blocked (7.5 μg LY2510924 i.p.), read-out: Biodistribution Stomach) of 0.13 %ID/g, a tissue uptake at 1 h ([1]; testes, 1 h, read-out: Biodistribution Testes) of 0.14 %ID/g and a tissue uptake at 1 h ([1]; testes, 1 h blocked (7.5 μg LY2510924 i.p.), read-out: Biodistribution Testes) of 0.29 %ID/g. The tissue uptake at 1 h ([1]; whole blood, 1 h, read-out: Biodistribution Blood) was 0.38 %ID/g, the tissue uptake at 1 h ([1]; whole blood, 1 h blocked (7.5 μg LY2510924 i.p.), read-out: Biodistribution Blood) was 1.08 %ID/g and the “Ratio Tumor: Blood” value ([2]; 1 h) was 31.30. The “Ratio Tumor: Bone” value ([2]; 1 h) was 37.23, the “Ratio Tumor: Liver” value ([2]; 1 h) was 15.41 and the “Ratio Tumor: Lung” value ([2]; 1 h) was 15.76. For the same compound, the “Ratio Tumor: Muscle” value ([2]; 1 h) was 180.39, the “Ratio Tumor: Spleen” value ([2]; 1 h) was 19.78 and the “Ratio Tumor: Blood” value [2, 4] was 1.74. The “Ratio Tumor: Bone” value [2, 4] was 8.83, the “Ratio Tumor: Liver” value [2, 4] was 2.59 and the “Ratio Tumor: Lung” value [2, 4] was 1.48. The “Ratio Tumor: Muscle” value [2, 4] was 8.71, the “Ratio Tumor: Spleen” value [2, 4] was 3.10 and the “% Intact Peptide” value [3] was over 99%.

— patent US20220218852A1, “NOVEL RADIOLABELLED CXCR4-TARGETING COMPOUNDS FOR DIAGNOSIS AND THERAPY” (PROVINCIAL HEALTH SERVICES AUTHORITY, priority 2019, published 2022)
